# Reference: US20240156856A1, “NOVEL APPLICATIONS OF HYALURONIC ACID FOR TREATMENT OF PAIN AND PRURITIS” (THE REGENTS OF THE UNIVERSITY OF CALIFORNIA, priority 2022, published 2024)
# System: 5-HT-induced scratching behavior in rats
# Assay: 5-HT-induced scratching (itch) behavior
# Assay type: in vivo
# Settings: topical, protamine vehicle
# Protocol: Topical hyaluronan attenuates itch behavior in rats. Intradermal administration of serotonin (5-HT) elicited acute scratching behavior, using the method of Nojima and Carstens {Nojima and Carstens, 2003, #99335; PMID: 12814838}. Rats were acclimated to a testing chamber for 30 min, and then briefly anesthetized with 2% isoflurane, during which the fur over the nape of the neck was shaved, and 5-HT (200 μg in 10 μl 0.9% saline vehicle) injected with a 30 gauge needle. In the topical hyaluronan group, hyaluronan (100 μg in 50 μl 75% DMSO in water vehicle) was applied to the skin 30 mins and again 5 mins before administration of 5-HT. Rats were placed back into testing chambers and their behavior video recorded for 40 min. Number of hind paw scratches directed at the injection site were counted by watching video playback at half normal speed, and total number of scratches in 2-min intervals recorded. Rats were treated with 5-HT alone and topical hyaluronan with 5-HT, with 4 days between experimental sessions, allowing for use of paired t-tests to compare data. Data are presented as cumulative number of scratches (FIG. 9A), and as total scratches over the 40-min observation period (FIG. 9B). […] See also, FIG. 10, which includes additional data showing that topical hyaluronan attenuates 5-HT-induced scratching behavior. […] Data are presented as cumulative number of scratches.
substance,measurement,setting,value
hyaluronan [500-1200 kDa hyaluronan],number of 5-HT-induced scratches,female rats,significantly attenuated the number of 5-HT-induced scratches
same,number of 5-HT-induced scratches,male rats,significantly attenuated the number of 5-HT-induced scratches
